Measurements as given in publication PMC9643456, “Matching amino acids membrane preference profile to improve activity of antimicrobial peptides” (Communications Biology, 2022).
Read-outs that look alike come from different tables or passages of the source.

Key:
A. baumannii strains = assay: microbe, parasite or virus in culture
Procedure: (§1) Twenty-six A. baumannii strains were clinically isolated and gifted to us by the Kyungpook National University School of Medicine. One A. baumannii strain (ATCC 17978) was purchased and gifted to us by Kyungpook National University School of Medicine. One A. baumannii strain and 10 K. pneumoniae strains (NCCP) were purchased from the National Culture Collection for Pathogens.
(§2) To assess antimicrobial activity, the MIC50 and MIC90 were measured using broth microdilution following CLSI guidelines. […] Each experiment was performed in triplicate. Meropenem (Sigma, Darmstadt, Germany) and colistin were used as control antibiotics. Cation-adjusted Mueller–Hinton broth (CAMHB) (Becton, Dickinson and Company, Franklin Lakes, USA) with supplied calcium (50 mg/L) and magnesium (10 mg/L) was used for the CLSI-test condition. Bacteria in midlog phase and peptides were separately diluted in CAMHB. The bacteria and peptide solutions were then mixed in 96-well polyethylene plates (SPL, Gyeonggi-do, Korea) and incubated for 18 h at 37 °C. The final concentration for bacteria was 5 × 10^5 CFU/ml. […] The MIC was defined to be the lowest concentration of peptide without visible turbidity by comparing with control antibiotics with the unaided eye. […] Each experiment was performed in triplicate. MICs in albumin and acetic acid solutions were measured using the same protocol but with 0.2% bovine serum albumin (Bovogen, Keilor, Australia), 0.01% acetic acid (Merck, New Jersey, USA), and CAMHB with both calcium and magnesium. In addition, MICs used in the antibiotic resistance acquisition test, the outer–inner membrane permeation test, and the transmembrane potential test and for FE-SEM were individually determined. The final bacterial concentrations used were as follows: for resistance acquisition, optical density (OD) 0.01; for outer–inner membrane permeability assays (LB), OD 0.1; for the transmembrane potential test, 1 × 10^8 CFU/ml (OD 0.171); […]. Inhibitory activity unidentifiable by direct observation was determined by counting the CFUs. Each experiment was performed at least twice.

K. pneumonia strains = assay: microbe, parasite or virus in culture; conditions: Klebsiella pneumoniae
Procedure: as §1, §2

C[C@@H](O)[C@H]1C(=O)N2C(C(=O)O)=C(S[C@@H]3CN[C@H](C(=O)N(C)C)C3)[C@H](C)[C@H]12 [Meropenem]
≥ 20 µM: MIC50 (A. baumannii strains; Acinetobacter baumannii) | MIC90 (A. baumannii strains; Acinetobacter baumannii)
27: Number of A. baumannii strains at MIC (μM) ≥20 (A. baumannii strains; of 30 strains)
2: Number of A. baumannii strains at MIC (μM) ≤0.31 (A. baumannii strains; of 30 strains)
< 0.31 µM: MIC (A. baumannii strains; Acinetobacter baumannii, ATCC17978, read-out: MIC, A. baumannii ATCC 17978) | MIC (A. baumannii strains; Acinetobacter baumannii, read-out: MIC, A. baumannii Isolated strain 15)
5 µM: MIC (A. baumannii strains; Acinetobacter baumannii, KCCM40203, read-out: MIC, A. baumannii KCCM 40203)
> 20 µM: MIC (A. baumannii strains; Acinetobacter baumannii, read-out: MIC, A. baumannii ATCC BBA 1605) | MIC (A. baumannii strains; Acinetobacter baumannii, read-out: MIC, A. baumannii Isolated strain 1) | MIC (A. baumannii strains; Acinetobacter baumannii, read-out: MIC, A. baumannii Isolated strain 3) | MIC (A. baumannii strains; Acinetobacter baumannii, read-out: MIC, A. baumannii Isolated strain 6) | MIC (A. baumannii strains; Acinetobacter baumannii, read-out: MIC, A. baumannii Isolated strain 10) | MIC (A. baumannii strains; Acinetobacter baumannii, read-out: MIC, A. baumannii Isolated strain 14) | MIC (A. baumannii strains; Acinetobacter baumannii, read-out: MIC, A. baumannii Isolated strain 16) | MIC (A. baumannii strains; Acinetobacter baumannii, read-out: MIC, A. baumannii Isolated strain 19) | MIC (A. baumannii strains; Acinetobacter baumannii, read-out: MIC, A. baumannii Isolated strain 22) | MIC (A. baumannii strains; Acinetobacter baumannii, read-out: MIC, A. baumannii Isolated strain 39) | MIC (A. baumannii strains; Acinetobacter baumannii, read-out: MIC, A. baumannii Isolated strain 44) | MIC (A. baumannii strains; Acinetobacter baumannii, read-out: MIC, A. baumannii Isolated strain 66) | MIC (A. baumannii strains; Acinetobacter baumannii, read-out: MIC, A. baumannii Isolated strain 68) | MIC (A. baumannii strains; Acinetobacter baumannii, read-out: MIC, A. baumannii Isolated strain 69) | MIC (A. baumannii strains; Acinetobacter baumannii, read-out: MIC, A. baumannii Isolated strain 71) | MIC (A. baumannii strains; Acinetobacter baumannii, read-out: MIC, A. baumannii Isolated strain 76) | MIC (A. baumannii strains; Acinetobacter baumannii, read-out: MIC, A. baumannii Isolated strain 80) | MIC (A. baumannii strains; Acinetobacter baumannii, read-out: MIC, A. baumannii Isolated strain 82) | MIC (A. baumannii strains; Acinetobacter baumannii, read-out: MIC, A. baumannii Isolated strain 86) | MIC (A. baumannii strains; Acinetobacter baumannii, read-out: MIC, A. baumannii Isolated strain 89) | MIC (A. baumannii strains; Acinetobacter baumannii, read-out: MIC, A. baumannii Isolated strain 102) | MIC (A. baumannii strains; Acinetobacter baumannii, read-out: MIC, A. baumannii Isolated strain 127) | MIC (A. baumannii strains; Acinetobacter baumannii, read-out: MIC, A. baumannii Isolated strain 141) | MIC (A. baumannii strains; Acinetobacter baumannii, read-out: MIC, A. baumannii Isolated strain 144) | MIC (A. baumannii strains; Acinetobacter baumannii, read-out: MIC, A. baumannii Isolated strain 147) | MIC (A. baumannii strains; Acinetobacter baumannii, read-out: MIC, A. baumannii Isolated strain 152) | MIC (A. baumannii strains; Acinetobacter baumannii, read-out: MIC, A. baumannii NCCP 14654) | MIC (K. pneumonia strains; read-out: MIC, K. pneumonia NCCP 15782) | MIC (K. pneumonia strains; read-out: MIC, K. pneumonia NCCP 15864) | MIC (K. pneumonia strains; read-out: MIC, K. pneumonia NCCP 15866) | MIC (K. pneumonia strains; read-out: MIC, K. pneumonia NCCP 16052) | MIC (K. pneumonia strains; read-out: MIC, K. pneumonia NCCP 16124) | MIC (K. pneumonia strains; read-out: MIC, K. pneumonia NCCP 16125) | MIC (K. pneumonia strains; read-out: MIC, K. pneumonia NCCP 16208) | MIC (K. pneumonia strains; read-out: MIC, K. pneumonia NCCP 16212) | MIC (K. pneumonia strains; read-out: MIC, K. pneumonia NCCP 16213)
0: Number of A. baumannii strains at MIC (μM) 0.63 (A. baumannii strains; of 30 strains) | Number of A. baumannii strains at MIC (μM) 1.25 (A. baumannii strains; of 30 strains) | Number of A. baumannii strains at MIC (μM) 2.5 (A. baumannii strains; of 30 strains) | Number of A. baumannii strains at MIC (μM) 10 (A. baumannii strains; of 30 strains)
1: Number of A. baumannii strains at MIC (μM) 5 (A. baumannii strains; of 30 strains)
20 µM: MIC (K. pneumonia strains; read-out: MIC, K. pneumonia NCCP 16128)
